Results as given in patent US20250326769A1, “HETEROAROMATIC MACROCYCLIC ETHER CHEMOTHERAPEUTIC AGENTS” (Nuvalent, Inc., priority 2022, published 2025).
Like-named read-outs stand apart in the source and are kept apart here.

Assays:
ROS1 = ROS1 (Homo sapiens (Human), UniProt P08922); assay: Biochemical kinase assay, ROS1-wt; conditions: apparent inhibitory constant, kinase domain, Morrison equation; read-out: ROS1-wt Ki^app
Procedure: (§1) First, 250 nL of compound dissolved in DMSO (100-fold of the desired concentration) was dispensed into a 384-well plate. A 12.5 μL substrate solution containing ATP (2 mM) and fluorogenic phosphorylation substrate AQT0101 ([…] for ALK and ROS, AssayQuant) or AQT0104 (26 μM for TRKB, AssayQuant) in buffer (50 mM HEPES pH 7.5, […], 0.5 mM EGTA, 10 mM MgCl2) was added and mixed thoroughly. Then, a 12.5 μL kinase solution containing ALK (1.5 nM, Carna, 08-518), ALK I1171N/D1203N (4 nM, SignalChem, custom-made), ROS1 (0.6 nM, Carma, 08-163), ROS1-G2032R (0.5 nM, SignalChem, R14-121BG), or TRKB-wt (1.5 nM, SignalChem, N17-11G) kinase domains in buffer ([…] pH 7.5, 0.01% Brij-[…], 0.4 mg/mL BSA, 0.5 mM EGTA, and 10 mM MgCl2) was added and mixed thoroughly. The plate was sealed and read by SpectraMax Paradigm at λ=485 nm every 2 minutes for 120 minutes at 30° C. Initial rates of reaction (v) were calculated from the change in fluorescence intensity over time during the initial, linear portion of the reaction. Finally, apparent inhibitory constants (Ki^app) were determined from regression of v and I (inhibitor concentration) to Morrison Equation (E=enzyme concentration): […]
(§2) Compound potency can be interpreted by binning Ki^app values against the targets: bin A for high potency, Ki^app<50 nM; bin B for medium potency, 50 nM≤Ki^app<500 nM; and bin C for low potency, Ki^app≥500 nM. […] “nd” means not determined.

ROS1-G2032R = ROS1-G2032R (Homo sapiens (Human), UniProt P08922, G2032R); assay: Biochemical kinase assay, ROS1-G2032R; conditions: apparent inhibitory constant, kinase domain, Morrison equation; read-out: ROS1-G2032R Ki^app
Procedure: as §1, §2

ALK I1171N/D1203N = ALK I1171N/D1203N (Homo sapiens (Human), UniProt Q9UM73, D1203N/I1171N); assay: Biochemical kinase assay, ALK I1171N/D1203N; conditions: apparent inhibitory constant, kinase domain, Morrison equation; read-out: ALK-I1171N-D1203N Ki^app
Method in brief: (§3)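 Kinase domains (in enzyme solution: ALK I1171N/D1203N 4 nM, ROS1 0.6 nM, ROS1-G2032R 0.5 nM, TRKB 1.5 nM) were mixed with substrate solution holding 2 mM ATP and 26 μM AQT0101 (ALK, ROS1) or AQT0104 (TRKB). Initial rates from 120-min fluorescence kinetics at 30 °C were fitted to the Morrison equation (Ki^app).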

TRKB-wt = TRKB-wt (Homo sapiens (Human), UniProt Q16620); assay: Biochemical kinase assay, TRKB-wt; conditions: apparent inhibitory constant, kinase domain, Morrison equation; read-out: TRKB-wt Ki^app
Method in brief: as §3

Ba/F3 EML4-ALK v1 I1171N = Ba/F3 EML4-ALK v1 I1171N (Homo sapiens (Human), UniProt Q9HC35+Q9UM73, I1171N); assay: Ba/F3 cell proliferation assay, EML4-ALK v1 I1171N; format: cell-based; conditions: for IC50: Ba/F3 stable cells, 72 hours, CellTiter-Glo; for ETV6-TRKB / EML4-ALK v1 I1171N: TRKB selectivity, ratio of Ba/F3 IC50 values
Method in brief: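 Ba/F3 cells stably transformed with retroviral EML4-ALK v1 I1171N, selected by IL-3 withdrawal and puromycin, grown IL-3-free. Compounds added as 3-fold dilution series, 72 h incubation; viability by CellTiter-Glo luminescence. IC50 from percent inhibition by four-parameter logistic fit, binned A/B/C.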

[1] = biological target: Ba/F3 EML4-ALK v1 I1171N/D1203N (Homo sapiens (Human), UniProt Q9HC35+Q9UM73, D1203N/I1171N); assay: Ba/F3 cell proliferation assay, EML4-ALK v1 I1171N/D1203N; format: cell-based; conditions: for IC50: Ba/F3 stable cells, 72 hours, CellTiter-Glo
Method in brief: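 Viability read by CellTiter-Glo luminescence after 72 h exposure to a 3-fold compound dilution series, with IC50 from four-parameter logistic regression. Cells were Ba/F3 rendered IL-3-independent through retroviral expression of EML4-ALK v1 I1171N/D1203N, puromycin-selected.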

Ba/F3 ETV6-TRKB = Ba/F3 ETV6-TRKB (Homo sapiens, UniProt Q16620); assay: Ba/F3 cell proliferation assay, ETV6-TRKB; format: cell-based
Method in brief: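 Growth inhibition after 72 h compound exposure (3-fold series) was measured by CellTiter-Glo in IL-3-independent Ba/F3 cells stably expressing ETV6-TRKB. A four-parameter logistic fit of percent inhibition versus concentration gave IC50.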

[2] = TRKB selectivity, ratio of Ba/F3 IC50 values
[3] = Ba/F3 stable cells, 72 hours, CellTiter-Glo; read-out: ETV6-TRKB IC50

Chain of Ba/F3 EML4-ALK v1 I1171N (Q9UM73 other isoform, or with tags, fused parts or gaps I1171N): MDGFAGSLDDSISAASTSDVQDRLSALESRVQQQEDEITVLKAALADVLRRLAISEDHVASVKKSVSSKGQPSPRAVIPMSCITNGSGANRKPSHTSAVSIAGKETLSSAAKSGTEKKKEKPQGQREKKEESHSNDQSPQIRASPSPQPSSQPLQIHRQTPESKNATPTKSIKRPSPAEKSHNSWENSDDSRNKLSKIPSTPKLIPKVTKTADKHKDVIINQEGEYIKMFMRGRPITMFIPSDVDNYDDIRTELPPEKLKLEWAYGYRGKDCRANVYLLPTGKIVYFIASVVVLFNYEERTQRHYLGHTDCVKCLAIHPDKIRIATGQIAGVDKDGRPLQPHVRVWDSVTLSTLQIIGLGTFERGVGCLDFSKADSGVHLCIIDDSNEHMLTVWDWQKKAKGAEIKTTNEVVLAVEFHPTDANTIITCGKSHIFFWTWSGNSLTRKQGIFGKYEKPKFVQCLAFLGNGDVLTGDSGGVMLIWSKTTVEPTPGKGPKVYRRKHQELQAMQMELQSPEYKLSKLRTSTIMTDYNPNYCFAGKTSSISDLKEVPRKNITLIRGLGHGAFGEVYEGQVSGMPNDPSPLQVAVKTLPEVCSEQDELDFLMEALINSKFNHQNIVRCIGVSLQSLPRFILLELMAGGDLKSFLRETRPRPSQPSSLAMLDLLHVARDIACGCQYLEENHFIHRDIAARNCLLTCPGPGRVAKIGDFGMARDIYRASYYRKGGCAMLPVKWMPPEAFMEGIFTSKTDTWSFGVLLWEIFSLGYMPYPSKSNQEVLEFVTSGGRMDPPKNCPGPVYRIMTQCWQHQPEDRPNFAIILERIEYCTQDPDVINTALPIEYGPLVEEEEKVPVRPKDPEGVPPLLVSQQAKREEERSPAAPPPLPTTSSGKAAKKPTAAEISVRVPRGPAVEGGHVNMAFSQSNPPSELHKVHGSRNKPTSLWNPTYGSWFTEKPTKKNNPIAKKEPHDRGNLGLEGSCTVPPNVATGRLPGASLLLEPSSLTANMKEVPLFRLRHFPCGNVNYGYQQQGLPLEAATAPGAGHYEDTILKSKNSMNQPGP
Chain of ALK I1171N/D1203N (Q9UM73 1116-1392 I1171N/D1203N): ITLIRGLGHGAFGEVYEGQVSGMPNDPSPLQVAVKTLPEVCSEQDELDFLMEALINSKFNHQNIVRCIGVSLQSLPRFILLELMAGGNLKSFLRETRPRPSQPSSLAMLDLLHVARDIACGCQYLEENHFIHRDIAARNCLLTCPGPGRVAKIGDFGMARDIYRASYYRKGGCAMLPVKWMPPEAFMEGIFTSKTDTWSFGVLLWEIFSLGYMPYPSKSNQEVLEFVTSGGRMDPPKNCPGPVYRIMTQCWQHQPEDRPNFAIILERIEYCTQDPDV
Chain of ROS1 (P08922 1945-2222): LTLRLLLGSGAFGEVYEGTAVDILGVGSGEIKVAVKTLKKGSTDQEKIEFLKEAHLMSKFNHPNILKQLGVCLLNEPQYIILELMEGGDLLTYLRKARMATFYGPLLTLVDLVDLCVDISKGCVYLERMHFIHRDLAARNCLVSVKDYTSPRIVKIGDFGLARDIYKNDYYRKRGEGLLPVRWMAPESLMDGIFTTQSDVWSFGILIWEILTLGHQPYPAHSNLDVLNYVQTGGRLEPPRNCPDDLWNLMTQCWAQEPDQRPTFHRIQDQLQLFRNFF
Chain of ROS1-G2032R (P08922 1945-2222 G2032R): as the sequence (P08922 1945-2222) above, with G88R counted along it
Chain of Ba/F3 EML4-ALK v1 I1171N/D1203N (Q9UM73 other isoform, or with tags, fused parts or gaps I1171N/D1203N): as the sequence (Q9UM73 other isoform, or with tags, fused parts or gaps I1171N) above, with D642N counted along it
Chain of TRKB-wt (Q16620 538-807): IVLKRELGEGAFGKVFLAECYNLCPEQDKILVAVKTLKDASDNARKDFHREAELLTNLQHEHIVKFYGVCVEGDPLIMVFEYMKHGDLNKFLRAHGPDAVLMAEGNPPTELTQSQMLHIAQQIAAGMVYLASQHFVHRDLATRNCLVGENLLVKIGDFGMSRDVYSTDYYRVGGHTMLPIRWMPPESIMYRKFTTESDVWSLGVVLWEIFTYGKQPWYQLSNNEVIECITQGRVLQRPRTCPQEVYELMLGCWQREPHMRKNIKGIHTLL
Chain of Ba/F3 ETV6-TRKB (Q16620 32-822 limits assumed, change not shown): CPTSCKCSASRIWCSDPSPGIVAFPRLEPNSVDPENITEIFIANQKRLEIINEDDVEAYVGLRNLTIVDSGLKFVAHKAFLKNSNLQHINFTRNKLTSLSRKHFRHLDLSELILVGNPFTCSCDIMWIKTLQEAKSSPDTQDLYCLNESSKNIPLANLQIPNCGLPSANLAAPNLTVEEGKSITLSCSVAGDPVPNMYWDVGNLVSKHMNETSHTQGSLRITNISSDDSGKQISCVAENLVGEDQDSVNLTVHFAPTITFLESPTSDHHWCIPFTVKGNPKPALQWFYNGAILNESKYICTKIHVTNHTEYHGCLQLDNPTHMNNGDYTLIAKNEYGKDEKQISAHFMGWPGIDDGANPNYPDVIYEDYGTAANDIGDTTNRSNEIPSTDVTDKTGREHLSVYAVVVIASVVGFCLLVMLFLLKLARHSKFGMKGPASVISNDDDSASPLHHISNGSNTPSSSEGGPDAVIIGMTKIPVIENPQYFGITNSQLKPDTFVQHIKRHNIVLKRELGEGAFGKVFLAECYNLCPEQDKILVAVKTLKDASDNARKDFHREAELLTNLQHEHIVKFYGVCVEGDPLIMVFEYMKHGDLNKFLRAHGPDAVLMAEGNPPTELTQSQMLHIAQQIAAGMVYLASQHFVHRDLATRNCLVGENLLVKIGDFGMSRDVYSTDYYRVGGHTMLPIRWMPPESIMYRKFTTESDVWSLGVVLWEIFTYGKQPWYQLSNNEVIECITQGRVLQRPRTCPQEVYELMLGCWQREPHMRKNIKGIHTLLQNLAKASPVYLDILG

| Ki (ROS1) [nM] | Ki (ROS1-G2032R) [nM] | Ki (ALK I1171N/D1203N) [nM] | Ki (TRKB-wt) [nM] | IC50 (Ba/F3 EML4-ALK v1 I1171N) [nM] | IC50 [1] [nM] | IC50 (Ba/F3 ETV6-TRKB; [3]) [nM] | Structure (SMILES) | ETV6-TRKB / EML4-ALK v1 I1171N (Ba/F3 EML4-ALK v1 I1171N) | ETV6-TRKB / EML4-ALK v1 I1171N/D1203N [1, 2] | Selectivity for Ba/F3 EML4-ALK v1 I1171N-D1203N IC50 over Ba/F3 ETV6-TRKB IC50 ([1]; TRKB selectivity, ratio of Ba/F3 IC50 values, Table 6 bins) | IC50 (Ba/F3 ETV6-TRKB; read-out: ETV6-TRKB IC50; Ba/F3 stable cells, 72 hours, CellTiter-Glo) [nM] |
| --- | --- | --- | --- | --- | --- | --- | --- | --- | --- | --- | --- |
| < 50 | < 50 | < 50 | 50 to 500 | 0.1 to 50 | 0.1 to 50 | > 500 | C[C@H]1Oc2cc(cnc2N)-c2c(c(C(=O)N(C)C)nn2CC2CC2)Cc2cn(C)nc2-c2ccc(F)cc21 [Example 8, N,N-dimethyl-(R)-22-amino-3-(cyclopropylmethyl)-16-fluoro-10-methyl-19-methyl-20-oxa-3,4,10,11,23-pentaazapentacyclo[19.3.1.0^2,^6.0^8,^12.0^13,^18]pentacosa-1(24),2(6),4,8,11,13,15, 17,21(25),22-decaene-5-carboxamide] | A (bin A for very high selectivity, ratio≥30-fold) | A (bin A for very high selectivity, ratio≥30-fold) | – | – |
| < 50 | < 50 | < 50 | 50 to 500 | – | 50 to 500 | > 500 | C[C@H]1Oc2cc(cnc2N)-c2c(c(C(=O)N3CCC3)nn2CC2CC2)Cc2cn(C)nc2-c2ccc(F)cc21 [Example 9, {(R)-22-amino-3-(cyclopropylmethyl)-16-fluoro-10-methyl-19-methyl-20-oxa-3,4,10,11,23-pentaazapentacyclo[19.3.1.0^2,^6.0^8,^12.0^13,^18]pentacosa-1(24),2(6),4,8,11,13,15,17,21(25),22-decaen-5-yl}(1-azetidinyl)methanone] | – | B (bin B for high selectivity, ratio≥10-fold but<30) | – | – |
| < 50 | < 50 | < 50 | < 50 | 0.1 to 50 | 0.1 to 50 | 50 to 500 | CCn1nc(C(=O)N(C)C)c2c1-c1cnc(N)c(c1)O[C@H](C)c1cc(F)ccc1-c1nn(C)cc1C2 [Example 7, N,N-dimethyl-(R)-22-amino-3-ethyl-16-fluoro-10-methyl-19-methyl-20-oxa-3,4,10,11,23-pentaazapentacyclo[19.3.1.0^2,6.0^8,12.0^13,18]pentacosa-1(24),2(6),4,8,11,13,15,17.21(25),22-decaene-5-carboxamide] | B (bin B for high selectivity, ratio≥10-fold but<30) | C (bin C for moderate selectivity, ratio≥1 but<10) | – | – |
| < 50 | 50 to 500 | < 50 | 50 to 500 | 0.1 to 50 | 0.1 to 50 | 50 to 500 | C[C@H]1Oc2cc(cnc2N)-c2c(nn(C)c2C#N)C(=O)c2cccnc2-c2ccc(F)cc21 [Example 49, (R)-23-amino-17-fluoro-4-methyl-20-methyl-7-oxo-21-oxa-4,5,12,24-tetraazapentacyclo[20.3.1.0^2,6.0^8,13.0^14,19]hexacosa-1(25),2,5,8(13),9,11.14,16,18,22(26),23-undecaene-3-carbonitrile] | A (bin A for very high selectivity, ratio≥30-fold) | A (bin A for very high selectivity, ratio≥30-fold) | AA (bin AA for the selectivity with the ratio≥30-fold) | – |

| Structure (SMILES) | Ki (ROS1) [nM] | Ki (ROS1-G2032R) [nM] | Ki (ALK I1171N/D1203N) [nM] | Ki (TRKB-wt) [nM] | IC50 (Ba/F3 EML4-ALK v1 I1171N) [nM] | IC50 [1] [nM] | IC50 (Ba/F3 ETV6-TRKB; [3]) [nM] | ETV6-TRKB / EML4-ALK v1 I1171N (Ba/F3 EML4-ALK v1 I1171N) | ETV6-TRKB / EML4-ALK v1 I1171N/D1203N [1, 2] | Selectivity for Ba/F3 EML4-ALK v1 I1171N-D1203N IC50 over Ba/F3 ETV6-TRKB IC50 ([1]; TRKB selectivity, ratio of Ba/F3 IC50 values, Table 6 bins) | IC50 (Ba/F3 ETV6-TRKB; read-out: ETV6-TRKB IC50; Ba/F3 stable cells, 72 hours, CellTiter-Glo) [nM] |
| --- | --- | --- | --- | --- | --- | --- | --- | --- | --- | --- | --- |
| C[C@H]1Oc2cc(cnc2N)-c2c(C#N)nn(C(=O)N(C)C)c2Cc2cccnc2-c2ccc(F)cc21 [Example 27, N,N-dimethyl-(R)-23-amino-3-cyano-17-fluoro-20-methyl-21-oxa-4,5,12,24-tetraazapentacyclo[20.3.1.0^2,^6.0^8,^13.0^14,^19]hexacosa-1(25),2(6),3,8(13),9,11,14,16,18,22(26),23-undecaene-5-carboxamide] | < 50 | < 50 | < 50 | < 50 | 0.1 to 50 | 0.1 to 50 | – | A (bin A for very high selectivity, ratio≥30-fold) | A (bin A for very high selectivity, ratio≥30-fold) | – | 50 to 500 |
| Cc1nc2c(s1)Cc1c(c(C#N)nn1C(=O)N(C)C)-c1cnc(N)c(c1)O[C@H](C)c1cc(F)ccc1-2 [Example 58, N,N-dimethyl-(R)-22-amino-3-cyano-16-fluoro-10,19-dimethyl-20-oxa-9-thia-4,5,11,23-tetraazapentacyclo[19.3.1.0^2,^6.0^8,^12.0^13,^18]pentacosa-1(24),2(6),3,8(12),10,13,15,17,21(25),22-decaene-5-carboxamide] | < 50 | < 50 | < 50 | 50 to 500 | 0.1 to 50 | 50 to 500 | > 500 | A (bin A for very high selectivity, ratio≥30-fold) | C (bin C for moderate selectivity, ratio≥1 but<10) | – | – |
